# Measured values: PubChem BioAssay AID2060888 (Molecular Pharmacology Branch, DTP, NCI, 2025)
# System: 695427-040-R-J1-PDC complex spheroid viability
# Test: Anticancer human tumor 695427-040-R-J1-PDC patient-derived colon adenocarcinoma cell line growth inhibition [RAS]
# Details: for viability, T/C: stronger effect = lower value
# Method in brief: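 Agents were tested in combination matrices in half-log decrements from a top concentration at or near clinical Cmax (10 microM if undetermined). Targets were multi-cell spheroids of tumour lines plus HUVEC and MSC stromal cells.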
# [1] = curve of first compound, second compound 0.00316 µM
# [2] = curve of first compound, second compound 0.01 µM
# [3] = curve of first compound, second compound 0.0316 µM
# [4] = curve of first compound, second compound 0.1 µM
# [5] = curve of first compound, second compound 0.316 µM
# [6] = curve of first compound, second compound 1 µM
# [7] = second compound 0.00316 µM, first compound 0.0316 µM
# [8] = second compound 0.00316 µM, first compound 0.1 µM
# [9] = second compound 0.00316 µM, first compound 0.316 µM
# [10] = second compound 0.00316 µM, first compound 1 µM
# [11] = second compound 0.01 µM, first compound 0.0316 µM
# [12] = second compound 0.01 µM, first compound 0.1 µM
# [13] = second compound 0.01 µM, first compound 0.316 µM
# [14] = second compound 0.01 µM, first compound 1 µM
# [15] = second compound 0.0316 µM, first compound 0.0316 µM
# [16] = second compound 0.0316 µM, first compound 0.1 µM
# [17] = second compound 0.0316 µM, first compound 0.316 µM
# [18] = second compound 0.0316 µM, first compound 1 µM
# [19] = second compound 0.1 µM, first compound 0.0316 µM
# [20] = second compound 0.1 µM, first compound 0.1 µM
# [21] = second compound 0.1 µM, first compound 0.316 µM
# [22] = second compound 0.1 µM, first compound 1 µM
# [23] = second compound 0.316 µM, first compound 0.0316 µM
# [24] = second compound 0.316 µM, first compound 0.1 µM
# [25] = second compound 0.316 µM, first compound 0.316 µM
# [26] = second compound 0.316 µM, first compound 1 µM
# [27] = second compound 1 µM, first compound 0.0316 µM
# [28] = second compound 1 µM, first compound 0.1 µM
# [29] = second compound 1 µM, first compound 0.316 µM
# [30] = second compound 1 µM, first compound 1 µM
# [31] = second compound 0.0316 µM, first compound 3.16 µM
# [32] = second compound 0.0316 µM, first compound 10 µM
# [33] = second compound 0.1 µM, first compound 3.16 µM
# [34] = second compound 0.1 µM, first compound 10 µM
# [35] = second compound 0.316 µM, first compound 3.16 µM
# [36] = second compound 0.316 µM, first compound 10 µM
# [37] = second compound 1 µM, first compound 3.16 µM
# [38] = second compound 1 µM, first compound 10 µM
# 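Further: viability read after seven days of drug exposure.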
# 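Wherever viability, T/C is given: 100% = DMSO vehicle control viability.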
smiles,measurement,setting,value
Nc1ccn(C2OC(CO)C(O)C2(F)F)c(=O)n1 (stereo not given) + C=CC(=O)N1CCN(c2nc(OCC3CCCN3C)nc3c(F)c(-c4nc(N)cc(C)c4C(F)(F)F)c(Cl)cc23)C(C)C1,IC50,[1],> 1000 nM
same,IC50,[2],> 1000 nM
same,IC50,[3],> 1000 nM
same,IC50,[4],> 1000 nM
same,IC50,[5],> 1000 nM
same,IC50,[6],> 1000 nM
same,"viability, T/C","second compound 0.00316 µM, first compound 0.00316 µM",93.3%
same,"viability, T/C","second compound 0.00316 µM, first compound 0.01 µM",88.1%
same,"viability, T/C",[7],77.5%
same,"viability, T/C",[8],84.9%
same,"viability, T/C",[9],72.1%
same,"viability, T/C",[10],69.6%
same,"viability, T/C","second compound 0.01 µM, first compound 0.00316 µM",94.4%
same,"viability, T/C","second compound 0.01 µM, first compound 0.01 µM",87.2%
same,"viability, T/C",[11],84.3%
same,"viability, T/C",[12],74.3%
same,"viability, T/C",[13],76.2%
same,"viability, T/C",[14],69.5%
same,"viability, T/C","second compound 0.0316 µM, first compound 0.00316 µM",92.9%
same,"viability, T/C","second compound 0.0316 µM, first compound 0.01 µM",80.5%
same,"viability, T/C",[15],77.9%
same,"viability, T/C",[16],73.8%
same,"viability, T/C",[17],76.5%
same,"viability, T/C",[18],70.8%
same,"viability, T/C","second compound 0.1 µM, first compound 0.00316 µM",96.9%
same,"viability, T/C","second compound 0.1 µM, first compound 0.01 µM",78.4%
same,"viability, T/C",[19],77.8%
same,"viability, T/C",[20],80.2%
same,"viability, T/C",[21],74.2%
same,"viability, T/C",[22],72.9%
same,"viability, T/C","second compound 0.316 µM, first compound 0.00316 µM",93.8%
same,"viability, T/C","second compound 0.316 µM, first compound 0.01 µM",84.2%
same,"viability, T/C",[23],91.3%
same,"viability, T/C",[24],77.5%
same,"viability, T/C",[25],80.4%
same,"viability, T/C",[26],69.7%
same,"viability, T/C","second compound 1 µM, first compound 0.00316 µM",92.7%
same,"viability, T/C","second compound 1 µM, first compound 0.01 µM",85.5%
same,"viability, T/C",[27],77.9%
same,"viability, T/C",[28],81.5%
same,"viability, T/C",[29],86.9%
same,"viability, T/C",[30],69.7%
CC(Nc1ccc2c(c1)OCCn1cc(N3C(=O)OCC3C(F)F)nc1-2)C(N)=O (stereo not given) + C#Cc1c(F)ccc2cc(O)cc(-c3ncc4c(N5CC6CCC(C5)N6)nc(OCC56CCCN5CC(F)C6)nc4c3F)c12,IC50,[3],1550 nM
same,IC50,[4],933 nM
same,IC50,[5],422 nM
same,IC50,[6],168 nM
same,IC50,"curve of first compound, second compound 3.16 µM",< 31.6 nM
same,IC50,"curve of first compound, second compound 10 µM",< 31.6 nM
same,"viability, T/C",[15],78.2%
same,"viability, T/C",[16],69.5%
same,"viability, T/C",[17],58.5%
same,"viability, T/C",[18],52.1%
same,"viability, T/C",[31],47.9%
same,"viability, T/C",[32],40.1%
same,"viability, T/C",[19],77%
same,"viability, T/C",[20],69.7%
same,"viability, T/C",[21],59.6%
same,"viability, T/C",[22],49.9%
same,"viability, T/C",[33],40.4%
same,"viability, T/C",[34],35.4%
same,"viability, T/C",[23],76.7%
same,"viability, T/C",[24],67.1%
same,"viability, T/C",[25],52%
same,"viability, T/C",[26],39.9%
same,"viability, T/C",[35],40.5%
same,"viability, T/C",[36],30.3%
same,"viability, T/C",[27],63.1%
same,"viability, T/C",[28],54%
same,"viability, T/C",[29],45.9%
same,"viability, T/C",[30],34.8%
same,"viability, T/C",[37],31.9%
same,"viability, T/C",[38],23.1%
same,"viability, T/C","second compound 3.16 µM, first compound 0.0316 µM",47.4%
same,"viability, T/C","second compound 3.16 µM, first compound 0.1 µM",38.3%
same,"viability, T/C","second compound 3.16 µM, first compound 0.316 µM",30.3%
same,"viability, T/C","second compound 3.16 µM, first compound 1 µM",23.9%
same,"viability, T/C","second compound 3.16 µM, first compound 3.16 µM",22%
same,"viability, T/C","second compound 3.16 µM, first compound 10 µM",16.9%
same,"viability, T/C","second compound 10 µM, first compound 0.0316 µM",33.8%
same,"viability, T/C","second compound 10 µM, first compound 0.1 µM",22.1%
same,"viability, T/C","second compound 10 µM, first compound 0.316 µM",17.1%
same,"viability, T/C","second compound 10 µM, first compound 1 µM",13.6%
same,"viability, T/C","second compound 10 µM, first compound 3.16 µM",12%
same,"viability, T/C","second compound 10 µM, first compound 10 µM",10.9%
CC(C)NCC(C(=O)N1CCN(c2ncnc3c2C(C)CC3O)CC1)c1ccc(Cl)cc1 (stereo not given) + C=CC(=O)N1CCN(c2nc(OCC3CCCN3C)nc3c(F)c(-c4nc(N)cc(C)c4C(F)(F)F)c(Cl)cc23)C(C)C1,IC50,[1],> 10000 nM
same,IC50,[2],> 10000 nM
same,IC50,[3],> 10000 nM
same,IC50,[4],> 10000 nM
same,IC50,[5],> 10000 nM
same,IC50,[6],> 10000 nM
same,"viability, T/C",[7],98%
same,"viability, T/C",[8],95.2%
same,"viability, T/C",[9],88.2%
same,"viability, T/C",[10],84.7%
same,"viability, T/C","second compound 0.00316 µM, first compound 3.16 µM",93.6%
same,"viability, T/C","second compound 0.00316 µM, first compound 10 µM",108%
same,"viability, T/C",[11],107%
same,"viability, T/C",[12],102%
same,"viability, T/C",[13],88.5%
same,"viability, T/C",[14],93.3%
same,"viability, T/C","second compound 0.01 µM, first compound 3.16 µM",101%
same,"viability, T/C","second compound 0.01 µM, first compound 10 µM",111%
same,"viability, T/C",[15],109%
same,"viability, T/C",[16],91.1%
same,"viability, T/C",[17],91.7%
same,"viability, T/C",[18],87.8%
same,"viability, T/C",[31],102%
same,"viability, T/C",[32],106%
same,"viability, T/C",[19],98.7%
same,"viability, T/C",[20],91.5%
same,"viability, T/C",[21],81.3%
same,"viability, T/C",[22],83.6%
same,"viability, T/C",[33],105%
same,"viability, T/C",[34],111%
same,"viability, T/C",[23],107%
same,"viability, T/C",[24],88.6%
same,"viability, T/C",[25],91.4%
same,"viability, T/C",[26],95.2%
same,"viability, T/C",[35],102%
same,"viability, T/C",[36],107%
same,"viability, T/C",[27],91.7%
same,"viability, T/C",[28],94.6%
same,"viability, T/C",[29],89%
same,"viability, T/C",[30],79.7%
same,"viability, T/C",[37],81.5%
same,"viability, T/C",[38],89.5%
CCn1c(-c2cccnc2C(C)OC)c2c3cc(ccc31)N1CCOC(CC(NC(=O)C(C(C)C)N(C)C(=O)C3(F)CCN(C(=O)C#CC(C)(C)N(C)C)CC3)C(=O)N3CCCC(N3)C(=O)OCC(C)(C)C2)C1 (stereo not given),"viability, T/C",compound 0.000949 µM,94% [middle of 8 runs]
same,"viability, T/C",compound 0.03 µM,95.8% [middle of 8 runs]
same,"viability, T/C",compound 0.0949 µM,102% [middle of 8 runs]
same,IC50,"compound alone, run of 05/20/2024",> 300 nM
CCn1c(-c2cc(N3CCN(C)CC3)cnc2C(C)OC)c2c3cc(ccc31)-c1csc(n1)CC(NC(=O)C1CC1C)C(=O)N1CCCC(N1)C(=O)OCC(C)(C)C2 (stereo not given),"viability, T/C",compound 0.003 µM,92.1% [middle of 8 runs]
same,"viability, T/C",compound 0.00949 µM,78.3% [middle of 8 runs]
same,"viability, T/C",compound 0.03 µM,60.2% [middle of 8 runs]
same,"viability, T/C",compound 0.0949 µM,51.3% [middle of 8 runs]
same,"viability, T/C",compound 0.3 µM,43% [middle of 8 runs]
